Experimental data: PubChem BioAssay (NCI)
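Briefly, cells in 96-well plates were exposed to five compound concentrations for 48 h, and endpoints were estimated by linear interpolation. GI50 is the concentration that inhibits growth by half. TGI marks complete inhibition of growth.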

Assays:
Assay in all cases: NCI-60 cell line screen, 48 h
SR leukemia = test system: SR leukemia
HCC-2998 colon = test system: HCC-2998 colon
HCT-116 colon = test system: HCT-116 colon
SK-MEL-2 melanoma = test system: SK-MEL-2 melanoma
HOP-92 NSCLC = test system: HOP-92 NSCLC
LOX IMVI melanoma = test system: LOX IMVI melanoma
NCI-H23 lung = test system: NCI-H23 lung
SF-268 CNS = test system: SF-268 CNS
MDA-MB-435 = test system: MDA-MB-435
UO-31 renal = test system: UO-31 renal
NCI-H226 lung = test system: NCI-H226 lung
MDA-MB-231 breast = test system: MDA-MB-231 breast
RPMI-8226 leukemia = test system: RPMI-8226 leukemia
MOLT-4 leukemia = test system: MOLT-4 leukemia
A498 renal = test system: A498 renal
COLO 205 colon = test system: COLO 205 colon
SK-OV-3 ovarian = test system: SK-OV-3 ovarian
NCI-H460 lung = test system: NCI-H460 lung
HL-60(TB) leukemia = test system: HL-60(TB) leukemia
BT-549 breast = test system: BT-549 breast
SK-MEL-28 melanoma = test system: SK-MEL-28 melanoma
HCT-15 colon = test system: HCT-15 colon
786-0 renal = test system: 786-0 renal
MCF7 breast = test system: MCF7 breast
KM12 colon = test system: KM12 colon
SNB-75 CNS = test system: SNB-75 CNS
T-47D breast = test system: T-47D breast
HOP-62 NSCLC = test system: HOP-62 NSCLC
MALME-3M melanoma = test system: MALME-3M melanoma
EKVX NSCLC = test system: EKVX NSCLC
SF-539 CNS = test system: SF-539 CNS
NCI/ADR-RES ovarian = test system: NCI/ADR-RES ovarian
OVCAR-8 ovarian = test system: OVCAR-8 ovarian
NCI-H522 lung = test system: NCI-H522 lung
SF-295 CNS = test system: SF-295 CNS
CCRF-CEM leukemia = test system: CCRF-CEM leukemia
HT29 colon = test system: HT29 colon
DU-145 prostate = test system: DU-145 prostate
SNB-19 CNS = test system: SNB-19 CNS
TK-10 renal = test system: TK-10 renal
UACC-257 melanoma = test system: UACC-257 melanoma
OVCAR-3 ovarian = test system: OVCAR-3 ovarian
SK-MEL-5 melanoma = test system: SK-MEL-5 melanoma
U251 CNS = test system: U251 CNS
A549 NSCLC = test system: A549 NSCLC
OVCAR-4 ovarian = test system: OVCAR-4 ovarian
SN12C renal = test system: SN12C renal
M14 melanoma = test system: M14 melanoma
K-562 leukemia = test system: K-562 leukemia
ACHN renal = test system: ACHN renal
PC-3 prostate = test system: PC-3 prostate
SW-620 colon = test system: SW-620 colon
RXF 393 renal = test system: RXF 393 renal
UACC-62 melanoma = test system: UACC-62 melanoma
CAKI-1 renal = test system: CAKI-1 renal

Compound: CN(C)c1ccc(/C=N/NC(N)=S)nc1
- GI50 (SR leukemia): 2.73 µM
- TGI (SR leukemia): > 100 µM
- GI50 (HCC-2998 colon): 3.35 µM
- TGI (HCC-2998 colon): > 100 µM
- GI50 (HCT-116 colon): 3.3 µM
- TGI (HCT-116 colon): > 100 µM
- GI50 (SK-MEL-2 melanoma): > 100 µM
- TGI (SK-MEL-2 melanoma): > 100 µM
- GI50 (HOP-92 NSCLC): > 100 µM
- TGI (HOP-92 NSCLC): > 100 µM
- GI50 (LOX IMVI melanoma): 2.71 µM
- TGI (LOX IMVI melanoma): > 100 µM
- GI50 (NCI-H23 lung): 2.39 µM
- TGI (NCI-H23 lung): > 100 µM
- GI50 (SF-268 CNS): 2.22 µM
- TGI (SF-268 CNS): 28.2 µM
- GI50 (MDA-MB-435): 4.01 µM
- TGI (MDA-MB-435): > 100 µM
- GI50 (UO-31 renal): 2.34 µM
- TGI (UO-31 renal): 7.46 µM
- GI50 (NCI-H226 lung): 3.54 µM
- TGI (NCI-H226 lung): 52.7 µM
- GI50 (MDA-MB-231 breast): 5.43 µM
- TGI (MDA-MB-231 breast): > 100 µM
- GI50 (RPMI-8226 leukemia): 3.21 µM
- TGI (RPMI-8226 leukemia): > 100 µM
- GI50 (MOLT-4 leukemia): 2.92 µM
- TGI (MOLT-4 leukemia): 95.1 µM
- GI50 (A498 renal): 1.92 µM
- TGI (A498 renal): 9.37 µM
- GI50 (COLO 205 colon): 4.27 µM
- TGI (COLO 205 colon): > 100 µM
- GI50 (SK-OV-3 ovarian): 4.5 µM
- TGI (SK-OV-3 ovarian): > 100 µM
- GI50 (NCI-H460 lung): 2.89 µM
- TGI (NCI-H460 lung): 29.3 µM
- GI50 (HL-60(TB) leukemia): 1.8 µM
- TGI (HL-60(TB) leukemia): 37.9 µM
- GI50 (BT-549 breast): 4.39 µM
- TGI (BT-549 breast): > 100 µM
- GI50 (SK-MEL-28 melanoma): 17.9 µM
- TGI (SK-MEL-28 melanoma): > 100 µM
- GI50 (HCT-15 colon): 4.11 µM
- TGI (HCT-15 colon): > 100 µM
- GI50 (786-0 renal): 3.33 µM
- TGI (786-0 renal): 9.68 µM
- GI50 (MCF7 breast): 1.64 µM
- TGI (MCF7 breast): > 100 µM
- GI50 (KM12 colon): 3.49 µM
- TGI (KM12 colon): > 100 µM
- GI50 (SNB-75 CNS): 1.82 µM
- TGI (SNB-75 CNS): > 100 µM
- GI50 (T-47D breast): 4.32 µM
- TGI (T-47D breast): > 100 µM
- GI50 (HOP-62 NSCLC): 3.11 µM
- TGI (HOP-62 NSCLC): > 100 µM
- GI50 (MALME-3M melanoma): 7.91 µM
- TGI (MALME-3M melanoma): > 100 µM
- GI50 (EKVX NSCLC): 3.09 µM
- TGI (EKVX NSCLC): > 100 µM
- GI50 (SF-539 CNS): 1.81 µM
- TGI (SF-539 CNS): > 100 µM
- GI50 (NCI/ADR-RES ovarian): 4.08 µM
- TGI (NCI/ADR-RES ovarian): > 100 µM
- GI50 (OVCAR-8 ovarian): 3.24 µM
- TGI (OVCAR-8 ovarian): > 100 µM
- GI50 (NCI-H522 lung): 1.2 µM
- TGI (NCI-H522 lung): > 100 µM
- GI50 (SF-295 CNS): 2.91 µM
- TGI (SF-295 CNS): 16.1 µM
- GI50 (CCRF-CEM leukemia): 2.82 µM
- TGI (CCRF-CEM leukemia): 21.8 µM
- GI50 (HT29 colon): 4.46 µM
- TGI (HT29 colon): > 100 µM
- GI50 (DU-145 prostate): 2.45 µM
- TGI (DU-145 prostate): 16.3 µM
- GI50 (SNB-19 CNS): 5.64 µM
- TGI (SNB-19 CNS): > 100 µM
- GI50 (TK-10 renal): 7.61 µM
- TGI (TK-10 renal): > 100 µM
- GI50 (UACC-257 melanoma): 24.4 µM
- TGI (UACC-257 melanoma): > 100 µM
- GI50 (OVCAR-3 ovarian): 2.54 µM
- TGI (OVCAR-3 ovarian): > 100 µM
- GI50 (SK-MEL-5 melanoma): 2.52 µM
- TGI (SK-MEL-5 melanoma): > 100 µM
- GI50 (U251 CNS): 3.99 µM
- TGI (U251 CNS): > 100 µM
- GI50 (A549 NSCLC): 4.61 µM
- TGI (A549 NSCLC): > 100 µM
- GI50 (OVCAR-4 ovarian): 4.3 µM
- TGI (OVCAR-4 ovarian): > 100 µM
- GI50 (SN12C renal): 3.51 µM
- TGI (SN12C renal): > 100 µM
- GI50 (M14 melanoma): 2.28 µM
- TGI (M14 melanoma): 5.23 µM
- GI50 (K-562 leukemia): 4.54 µM
- TGI (K-562 leukemia): > 100 µM
- GI50 (ACHN renal): 2.55 µM
- TGI (ACHN renal): > 100 µM
- GI50 (PC-3 prostate): 3.76 µM
- TGI (PC-3 prostate): > 100 µM
- GI50 (SW-620 colon): 3.14 µM
- TGI (SW-620 colon): > 100 µM
- GI50 (RXF 393 renal): 4.16 µM
- TGI (RXF 393 renal): > 100 µM
- GI50 (UACC-62 melanoma): 3.39 µM
- TGI (UACC-62 melanoma): > 100 µM

Compound: CN(C)c1ccc(/C=C/C=c2/c3ccccc3n3c2cc(-c2ccccc2)[n+]3C)cc1
- TGI (CAKI-1 renal): 1.17 µM
- TGI (NCI-H226 lung): 1.82 µM
- TGI (MOLT-4 leukemia): 0.724 µM
- TGI (A498 renal): 1.23 µM
- TGI (HL-60(TB) leukemia): 0.509 µM
- TGI (HOP-62 NSCLC): 1.19 µM
- TGI (EKVX NSCLC): 1.57 µM
- TGI (NCI/ADR-RES ovarian): > 100 µM
- TGI (CCRF-CEM leukemia): > 100 µM
- TGI (DU-145 prostate): 1.03 µM
- TGI (OVCAR-4 ovarian): 2.11 µM
- TGI (K-562 leukemia): > 100 µM
- TGI (ACHN renal): 1.63 µM
- TGI (PC-3 prostate): 1.17 µM
- TGI (RXF 393 renal): 1.62 µM
